# Like-named read-outs stand apart in the source and are kept apart here.
# How the values were obtained:
# [1] = set-up: method as in PMID 12937948; conditions: comparison between tracers; cited from earlier work
# SSTR5 = conditions: cited from earlier work
# SSTR2 = conditions: cited from earlier work
# SSTR3 = conditions: cited from earlier work
# [2] = system: xenografts of a human meningioma cell line (CH-157MN); experiment: Static PET/CT study: SUVmax and SUV ratios in mice bearing meningioma xenografts; assay type: in vivo, NUDE NU/NU mice; conditions: for T/L SUV ratio (tumor-to-liver): SUVmax of tumor normalized to SUVmax of liver, p<0.001; for Visualization of flank tumors in PET/CT images: comparative PET/CT images of the same animal
# Procedure: (§1) Animals were scanned on a small-animal PET scanner (ARGUS PET-CT, SEDECAL, Madrid, Spain) under anesthesia (isoflurane, 3% induction and 1.5% maintenance in 100% O2). Imaging was performed 7–28 days after tumor cell inoculation. […] Half of the animals imaged with ^68Ga-DOTATOC were also imaged with the other two radiotracers in alternate days with respect to ^68Ga-DOTATOC (Figure 1).
# (§2) Frames corresponding to the last 60 minutes of the study were summed to form a static image. Images were reconstructed using the 2D–OSEM (Ordered Subset Expectation Maximization) algorithm (16 subsets and two iterations), which yields a spatial resolution for this scanner of 1.45 mm Full Width at Half Maximum (FWHM), with a voxel size of 0.3875×0.3875×0.7750 mm^3. The energy window was 400–700 keV. Decay and deadtime corrections were applied.
# Three 3D ROIs were drawn manually on the CT image, one for each tissue of interest (tumor, liver, and muscle), plus a background ROI outside the body area. Since the CT images are intrinsically registered to the PET images, the ROIs drawn on the CT image were directly overlaid on the PET image after correction for the different image sizes. The assessment of PET data included calculation of the maximum standard uptake value (SUVmax) on the static tomographic study and computation of the volume of distribution (Vt) from the dynamic study.
# Tumor, muscle, and liver SUVmax values at 30–90 minutes post-injection were recorded. […] The SUVmax of the tumor lesions was normalized to the SUVmax of the liver (T/L) and muscle (T/M). The T/L and T/M SUV ratios were considered markers of the ability of the radiopharmaceutical to localize in the tumor.
# SSTR in CH-157MN cells = experiment: Homologous competitive binding with [^125I]-somatostatin-28 in CH-157MN meningioma cells; set-up: species or system human; conditions: 0.5 nM [^125I]-somatostatin-28, 37°C, 1 hour, mean ± SEM, three independent experiments in triplicate, read-out: IC50 (concentration of cold ligand that reduces specific binding of radioligand by 50%)
# Procedure: Affinity was determined from three independent experiments performed in triplicate and was measured by means of a homologous competitive binding experiment according to Motulsky and Neubig. The IC50 (concentration of cold ligand [somatostatin-28] that reduces specific binding of radioligand by 50%) was determined by competitive binding assays with [^125I]-somatostatin-28 (Amersham Pharmacia Biotech, UK) in CH-157MN meningioma cells. Briefly, cells were incubated into a 24-well cell culture plate (2–2.5×10^5 cells/well) at 37°C for 1 hour in a CO2 incubator with 0.5 nM [^125I]-somatostatin-28 (Amersham Pharmacia Biotech, UK) in the presence of increasing concentrations of somatostatin-28 (0.1 nM-10 µM) in 0.25 ml of binding media (DMEM, 2 mM L-glutamine, 50 units/ml penicillin and 50 µg/ml streptomycin). The reaction medium was aspirated after incubation. Cells were rinsed with 0.5 ml of ice-cold PBS twice and lysed in 0.5 ml of 1 N NaOH for five minutes. The activity in cells was measured in a Packard Cobra II gamma counter. The competitive binding curves were obtained by plotting the [^125I]-somatostatin-28 bound to cells against concentrations of cold ligand. IC50 and maximum numbers of binding sites (Bmax) were calculated using Origin 7.5 software (OriginLab Corporation, Northampton, Massachusetts, USA).
# [3] = system: xenografts of a human meningioma cell line (CH-157MN); experiment: Dynamic PET study: volume of distribution (Vt) by Logan graphical analysis; assay type: in vivo, NUDE NU/NU mice; conditions: two-tissue reversible compartmental model, comparison between radiotracers
# Procedure: as §1, §2
# Three 3D ROIs were drawn manually on the CT image, one for each tissue of interest (tumor, liver, and muscle), plus a background ROI outside the body area. Since the CT images are intrinsically registered to the PET images, the ROIs drawn on the CT image were directly overlaid on the PET image after correction for the different image sizes. […]
# Vt was calculated from dynamic PET data using standard Logan graphical analysis for a two-tissue reversible compartmental model. […]
# [4] = comparison between radiotracers
substance,measurement,setting,value
^68Ga-DOTA-Nal^3-octreotide [^68Ga-DOTANOC],Lipophilicity,[1],more lipophilic than ^68Ga-DOTATATE and ^68Ga-DOTATOC
same,Affinity for SSTR5,SSTR5,has affinity for SSTR3 and SSTR5
same,Affinity for SSTR2,SSTR2; comparison with ^68Ga-DOTATOC,higher affinity for SSTR2 than ^68Ga-DOTATOC
same,Affinity for SSTR3,SSTR3,has affinity for SSTR3 and SSTR5
^68Ga-DOTA -Tyr^3-octreotide [^68Ga-DOTATOC],T/L SUV ratio (tumor-to-liver),[2]; [4],No differences were found between ^68Ga-DOTATATE and ^68Ga-DOTATOC
same,Visualization of flank tumors in PET/CT images,[2],better visualized
same,Affinity for SSTR2,SSTR2,high affinity
somatostatin-28,IC50,SSTR in CH-157MN cells,63.7 ± 32.3 nM
^68Ga-DOTA-Tyr^3-octreotate [^68Ga-DOTATATE],Vt tumor,[3],higher with ^68Ga-DOTATATE than with ^68Ga-DOTANOC and relatively similar to that of ^68Ga-DOTATOC
same,T/L SUV ratio (tumor-to-liver),[2]; [4],No differences were found between ^68Ga-DOTATATE and ^68Ga-DOTATOC
same,T/M SUV ratio (tumor-to-muscle),"[2]; SUVmax of tumor normalized to SUVmax of muscle, comparison between radiotracers",higher than that of ^68Ga-DOTATOC (p<0.01) and ^68Ga-DOTANOC (p<0.05)
same,Visualization of flank tumors in PET/CT images,[2],better visualized
same,Affinity for SSTR2,SSTR2,high affinity
